# Data reported in ChEMBL document CHEMBL1128615, “Design, synthesis and evaluation of novel bismustard cross-linked lexitropsins” (1995).
# Assays:
# Nucleic Acid [1] = test: Compound was evaluated for its binding affinity to homo poly(dA-dT) polymer using ethidium displacement assay; type: nucleic-acid assay
# Nucleic Acid [2] = test: Compound was evaluated for binding affinity to alternating poly(dA)-poly(dT) polymer using ethidium displacement assay; type: nucleic-acid assay
# Nucleic Acid [3] = test: Compound was evaluated for binding affinity to calf thymus DNA using ethidium displacement assay; type: nucleic-acid assay; settings: Bos taurus
# Nucleic Acid [4] = test: Compound was evaluated for binding affinity to poly(dG-dC) polymer using ethidium displacement assay; type: nucleic-acid assay
# KB = test: Compound was evaluated for cytotoxicity measured as TD50; type: functional; settings: Homo sapiens, read-out: TD50 (the source's name)
# Nucleic Acid [5] = test: Compound was evaluated for its ability of alkylation of DNA; type: nucleic-acid assay; settings: Bos taurus
# Nucleic Acid [6] = test: Binding affinity to alternating poly(dA)-poly(dT) polymer using ethidium displacement assay; type: nucleic-acid assay; settings: Bos taurus
# Nucleic Acid [7] = test: Compound was evaluated for binding affinity to homo poly(dA-dT) polymer using ethidium displacement assay; type: nucleic-acid assay
SMILES,C50 (Nucleic Acid [1]) [µM],C50 (Nucleic Acid [2]) [µM],C50 (Nucleic Acid [3]) [µM],Kb (Nucleic Acid [3]) [M⁻¹],C50 (Nucleic Acid [4]) [µM],Kb (Nucleic Acid [4]) [M⁻¹],CC50 (KB) [µM],Alkylation (Nucleic Acid [5]) [%],Kb (Nucleic Acid [6]) [M⁻¹],Kb (Nucleic Acid [7]) [M⁻¹]
CN(C)CCCNC(=O)c1cc(NC(=O)c2cc(NC(=O)c3ccc(N(CCCl)CCCl)cc3)cn2CCCCCCCCCCCCn2cc(NC(=O)c3ccc(N(CCCl)CCCl)cc3)cc2C(=O)Nc2cc(C(=O)NCCCN(C)C)n(C)c2)cn1C,1.06,1.31,3.17,1.73e+06,2.11,9.66e+06,36.3,,,
CN(C)CCCNC(=O)c1cc(NC(=O)c2cc(NC(=O)c3ccc(N(CCCl)CCCl)cc3)cn2CCCCCCCCCCn2cc(NC(=O)c3ccc(N(CCCl)CCCl)cc3)cc2C(=O)Nc2cc(C(=O)NCCCN(C)C)n(C)c2)cn1C,1.78,1.1,2.02,2.74e+06,1.96,1.04e+07,44.2,7.3,,
CN(C)CCCNC(=O)c1cc(NC(=O)c2cc(NC(=O)c3ccc(N(CCCl)CCCl)cc3)cn2C)cn1C,2.85,0.199,5.1,1.07e+06,11,1.81e+06,5,11,6.06e+06,3.41e+06
CN(C)CCCNC(=O)c1cc(NC(=O)c2cc(NC(=O)c3ccc(N(CCCl)CCCl)cc3)cn2CCCCCCCCn2cc(NC(=O)c3ccc(N(CCCl)CCCl)cc3)cc2C(=O)Nc2cc(C(=O)NCCCN(C)C)n(C)c2)cn1C,0.802,0.535,1.02,5.6e+06,1.64,1.25e+07,> 79.2,7.1,,
CN(C)CCCNC(=O)c1cc(NC(=O)c2cc(NC(=O)c3ccc(N(CCCl)CCCl)cc3)cn2CCCCCCCCCCCn2cc(NC(=O)c3ccc(N(CCCl)CCCl)cc3)cc2C(=O)Nc2cc(C(=O)NCCCN(C)C)n(C)c2)cn1C,1.1,1.2,1.63,3.42e+06,2.46,8.25e+06,35.8,12,,
CN(C)CCCNC(=O)c1cc(NC(=O)c2cc(NC(=O)c3ccc(N(CCCl)CCCl)cc3)cn2CCCCCCCCCn2cc(NC(=O)c3ccc(N(CCCl)CCCl)cc3)cc2C(=O)Nc2cc(C(=O)NCCCN(C)C)n(C)c2)cn1C,1.3,1.31,1.74,3.2e+06,1.97,1.04e+07,> 79.2,6.7,,
